# Source: patent publication US20200157637A1, “TARGETING OF ANAPLASTIC LYMPHOMA KINASE IN SQUAMOUS CELL CARCINOMA” (BOARD OF REGENTS, THE UNIVERSITY OF TEXAS SYSTEM, priority 2017, published 2020)
# Entries after “also recorded” stand apart in the source; their conditions may differ.
# What was measured:
# [1] = test system: HSC3 cells; assay: Cell viability assay, HSC3; type: cell-based, Human; conditions: 500 nM each, 48, 72 and 96 h
# Protocol: (§1) Cell viability assays. Cytotoxicity was assessed using the Cell Titer 96 Aqueous Non-Radioactive Cell Proliferation Assay (Promega, Madison, Wis.) according to manufacturer's protocol. Absorbance values of test groups were normalized against controls (n=4).
# [2] = test system: HSC3 mouse xenografts; assay: OSCC mouse xenograft model (HSC3-derived tumors); type: in vivo
# Protocol: OSCC mouse xenograft models. All studies were approved by the UTHSCSA institutional Animal Care and Use Committee. Six week-old female athymic nude mice (Harlan, Indianapolis, […].) were used in a laminar air-flow cabinet under pathogen-free conditions. Mice were provided with a 12 h light/dark schedule at controlled temperature and humidity with food and water ad libitum. Mice were acclimated for one week prior to study initiation. Mice were injected subcutaneously in the right flank with 3×10^6 HSC3 cells in 0.1 ml of sterile PBS. […] Treatments were repeated every day for a total of 14 days. Mice were monitored daily for tumor growth (using digital calipers), cachexia, and weight loss. Tumor volumes were calculated by the elliptical formula: ½ (Length×Width^2) (Jensen et al., 2008). At experimental conclusion, tumors were fixed and processed for histological analysis. Hematoxylin and eosin (H&E) staining and IHC studies were performed by the UTHSCSA Cancer Therapy and Research Center (CTRC) core pathology laboratory.
# [3] = test system: Ca127 cells; assay: Cell migration (IncuCyte wound-healing) assay, Ca127; type: cell-based, Human; conditions: 500 nM each
# Protocol: (§2) Cell migration assay. Cellular migration was performed using the IncuCyte ZOOM™ live cell image device (Essen Bioscience). After achieving cell confluence in 96-well format, the IncuCyte scratch system was used to generate simultaneous rectangular ‘wounds’ with a defined area in HSC3 and Ca127 cell layers. […] Images of cells moving within the wound area were taken by the automated Incu-Cyte system over intervals of 2 hr (HSC3) or 3 hr (Ca127). Migration was calculated as percent of cell confluence within the wound, starting at 0% confluence (i.e., no cells in the wound area). When the wound was completely filled with migrating cells, this was calculated at 100% confluence.
# [4] = test system: HSC3 cells; assay: Cell migration (IncuCyte wound-healing) assay, HSC3; type: cell-based, Human; conditions: 500 nM each
# Protocol: as §2
# [5] = test system: HSC3 cells; assay: Flow cytometry cell cycle analysis (PI staining), HSC3; type: cell-based, Human; conditions: 500 nM each, 30 hr
# Description: (§3) Flow cytometry. […] Cells were harvested, fixed in 70% EtoH, treated with RNase A, and stained with propidium iodide (PI).
# [6] = test system: Ca127 cells; assay: Cell viability assay, Ca127; type: cell-based, Human; conditions: 500 nM each, 48, 72 and 96 h
# Protocol: as §1
# [7] = test system: Cal27 cells; assay: Flow cytometry cell cycle analysis (PI staining), Cal27; type: cell-based, Human; conditions: 500 nM each, 30 hr
# Description: as §3
# [8] = test system: EGFR signaling components in HSC3 cells; assay: Western blot analysis of EGFR signaling components, HSC3; type: cell-based, Human; conditions: 500 nM each, 6 h
# Description: (§4) Immunoblotting. […] SDS-PAGE separated proteins were transferred to PVDF membrane and the membrane blocked in 5% milk.
# [9] = test system: EGFR signaling components in Ca127 cells; assay: Western blot analysis of EGFR signaling components, Ca127; type: cell-based, Human; conditions: 500 nM each, 6 h
# Description: as §4
# [10] = test system: oral cancer patients; conditions: cited from earlier work
Structure (SMILES),cell growth (in words) [1],G1 [5],G2 [5],S [5],SubG1 [5],cell growth (in words) [6],G1 [7],G2 [7],S [7],SubG1 [7],other results
COc1cc2ncnc(Nc3ccc(F)c(Cl)c3)c2cc1OCCCN1CCOCC1 [Gefitinib],significant anti-proliferative effects,95.60 % of cell distribution,1.87 % of cell distribution,0.0 % of cell distribution,2.03 % of cell distribution,significant anti-proliferative effects,90.79 % of cell distribution,4.44 % of cell distribution,2.59 % of cell distribution,2.53 % of cell distribution,"tumor volume compared to control ([2]; day 6, Gefitinib 100 mg/kg daily, oral gavage): 57 % of control; cell migration (in words) [3]: significantly reduced at 9 h and remained significantly low for 48 h; cell migration (in words) [4]: significant reduction from 2 to 8 h"
COc1cc(N2CCC(N3CCN(C)CC3)CC2)ccc1Nc1ncc(Cl)c(Nc2ccccc2S(=O)(=O)C(C)C)n1 [TAE684],significant anti-proliferative effects,95.23 % of cell distribution,3.73 % of cell distribution,0.84 % of cell distribution,0.34 % of cell distribution,significant anti-proliferative effects,88.11 % of cell distribution,8.40 % of cell distribution,2.25 % of cell distribution,1.68 % of cell distribution,"tumor growth (in words) ([2]; daily oral gavage for 14 days, TAE684 10 mg/kg, Gefitinib 100 mg/kg): unaffected; also recorded: No change in tumor growth; mean tumor volume ([2]; day 14, daily oral gavage, TAE684 10 mg/kg, Gefitinib 100 mg/kg, vehicle control 431 mm^3): 381 mm^3; activation of STAT3 (p-STAT3 to total STAT3) (in words) [8]: induced; phospho-AKT / AKT activation (in words) [8]: significantly reduced; activation of STAT3 (p-STAT3 to total STAT3) (in words) [9]: slightly induced; phospho-AKT / AKT activation (in words) [9]: significantly decreased"
C#Cc1cccc(Nc2ncnc3cc(OCCOC)c(OCCOC)cc23)c1 [Erlotinib],,,,,,,,,,,"response rate ([10]; oral cancer patients with stage I disease): 10-15%; response (in words) ([10]; patients with stages II, III, and IV disease): failed to respond entirely"
